# In publication PMC9414551 (Pharmaceuticals, 2022):
# Where “and” joins values, the source holds several entries; their conditions need not be identical. Equal values may be shown once. Where a name gives a salt, the structure may show the parent alone.
# How the values were obtained:
# NR1-2B NMDAR [1] = target: T1, NR1-2B NMDAR (Homo sapiens, UniProt Q05586+Q13224); assay: Whole-cell manual patch-clamp REL-1017 CRC in 1 mM MgCl2; conditions: 1 mM MgCl2, 1 μM L-glutamate, −60 mV
# NR1-2A NMDAR [2] = target: T2, NR1-2A NMDAR (Homo sapiens, UniProt Q05586+Q12879); assay: as above; conditions: 1 mM MgCl2, 1 μM L-glutamate, −60 mV
# T2 sequence (Q12879 23-1464, other chains not shown): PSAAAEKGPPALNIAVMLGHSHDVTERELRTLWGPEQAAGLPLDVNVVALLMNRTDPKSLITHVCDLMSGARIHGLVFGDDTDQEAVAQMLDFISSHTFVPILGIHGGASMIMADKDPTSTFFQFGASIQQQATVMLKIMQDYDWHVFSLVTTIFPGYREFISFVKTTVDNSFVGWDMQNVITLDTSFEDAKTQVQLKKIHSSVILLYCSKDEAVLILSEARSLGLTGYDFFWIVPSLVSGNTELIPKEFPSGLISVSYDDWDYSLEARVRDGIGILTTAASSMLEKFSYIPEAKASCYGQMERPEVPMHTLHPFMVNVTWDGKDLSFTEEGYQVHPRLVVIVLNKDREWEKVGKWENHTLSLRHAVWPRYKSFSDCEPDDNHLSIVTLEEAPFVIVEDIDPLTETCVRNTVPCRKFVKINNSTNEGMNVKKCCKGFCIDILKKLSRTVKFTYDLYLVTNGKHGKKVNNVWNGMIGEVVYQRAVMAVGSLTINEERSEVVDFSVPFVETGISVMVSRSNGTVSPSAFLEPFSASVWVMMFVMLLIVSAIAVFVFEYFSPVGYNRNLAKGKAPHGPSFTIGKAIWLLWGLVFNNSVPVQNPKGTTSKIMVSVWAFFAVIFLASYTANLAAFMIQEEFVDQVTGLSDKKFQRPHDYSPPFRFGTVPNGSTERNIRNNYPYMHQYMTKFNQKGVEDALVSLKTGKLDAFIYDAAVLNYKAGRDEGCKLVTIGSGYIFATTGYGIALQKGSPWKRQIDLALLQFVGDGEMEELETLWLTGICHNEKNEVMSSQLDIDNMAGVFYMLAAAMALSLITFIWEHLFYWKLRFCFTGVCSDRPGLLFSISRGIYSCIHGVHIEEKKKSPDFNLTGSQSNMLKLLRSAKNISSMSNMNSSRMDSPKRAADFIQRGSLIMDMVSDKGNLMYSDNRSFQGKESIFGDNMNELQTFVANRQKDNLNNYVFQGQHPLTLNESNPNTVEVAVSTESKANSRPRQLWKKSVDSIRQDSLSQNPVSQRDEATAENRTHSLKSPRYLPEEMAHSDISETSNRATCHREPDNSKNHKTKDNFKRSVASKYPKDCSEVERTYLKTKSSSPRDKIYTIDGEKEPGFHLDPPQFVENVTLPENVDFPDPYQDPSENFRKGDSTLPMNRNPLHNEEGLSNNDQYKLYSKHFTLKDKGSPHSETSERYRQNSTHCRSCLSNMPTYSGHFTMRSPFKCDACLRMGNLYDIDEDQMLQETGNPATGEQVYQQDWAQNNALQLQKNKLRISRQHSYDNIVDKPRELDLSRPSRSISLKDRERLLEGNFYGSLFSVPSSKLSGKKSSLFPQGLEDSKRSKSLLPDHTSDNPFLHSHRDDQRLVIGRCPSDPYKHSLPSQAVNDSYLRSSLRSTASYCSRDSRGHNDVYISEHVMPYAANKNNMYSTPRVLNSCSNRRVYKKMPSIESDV
# NR1-2C NMDAR [3] = target: T3, NR1-2C NMDAR (Homo sapiens, UniProt Q05586+Q14957); assay: Whole-cell manual patch-clamp: current block, onset/offset kinetics and trapping, no Mg2+; conditions: test item 10 µM, −70 mV
# T3 sequence (Q14957 20-1233, other chains not shown): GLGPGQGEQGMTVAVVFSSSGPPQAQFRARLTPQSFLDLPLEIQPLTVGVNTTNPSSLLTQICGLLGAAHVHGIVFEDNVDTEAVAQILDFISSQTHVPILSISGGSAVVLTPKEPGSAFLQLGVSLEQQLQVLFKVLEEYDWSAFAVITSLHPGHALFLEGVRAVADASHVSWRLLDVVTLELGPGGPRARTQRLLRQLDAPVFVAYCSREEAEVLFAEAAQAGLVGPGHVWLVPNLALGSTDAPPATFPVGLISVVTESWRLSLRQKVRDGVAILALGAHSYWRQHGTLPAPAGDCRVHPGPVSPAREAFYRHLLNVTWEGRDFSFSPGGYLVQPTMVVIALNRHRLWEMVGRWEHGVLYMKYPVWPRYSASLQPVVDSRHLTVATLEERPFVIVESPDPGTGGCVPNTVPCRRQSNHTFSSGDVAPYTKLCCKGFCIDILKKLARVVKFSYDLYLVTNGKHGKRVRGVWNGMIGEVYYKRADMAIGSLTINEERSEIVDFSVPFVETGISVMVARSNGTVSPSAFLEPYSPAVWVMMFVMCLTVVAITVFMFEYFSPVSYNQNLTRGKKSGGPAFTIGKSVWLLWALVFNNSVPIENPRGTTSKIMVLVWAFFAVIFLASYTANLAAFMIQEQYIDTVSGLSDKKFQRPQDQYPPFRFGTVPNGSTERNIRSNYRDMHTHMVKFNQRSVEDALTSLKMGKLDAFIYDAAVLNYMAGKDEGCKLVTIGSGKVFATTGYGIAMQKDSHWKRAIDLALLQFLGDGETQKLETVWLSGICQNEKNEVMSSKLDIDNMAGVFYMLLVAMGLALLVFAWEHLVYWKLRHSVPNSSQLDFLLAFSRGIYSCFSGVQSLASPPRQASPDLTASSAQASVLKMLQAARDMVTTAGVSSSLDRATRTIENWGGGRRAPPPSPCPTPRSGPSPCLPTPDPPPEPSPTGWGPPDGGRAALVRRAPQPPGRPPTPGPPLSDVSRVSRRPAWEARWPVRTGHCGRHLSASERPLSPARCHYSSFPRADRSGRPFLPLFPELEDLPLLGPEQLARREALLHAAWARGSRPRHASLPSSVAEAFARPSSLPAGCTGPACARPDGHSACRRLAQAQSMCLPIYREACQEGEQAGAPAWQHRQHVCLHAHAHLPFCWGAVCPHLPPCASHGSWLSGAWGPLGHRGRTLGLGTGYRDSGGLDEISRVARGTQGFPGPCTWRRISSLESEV
# NR1-2A NMDAR [4] = target: T2, NR1-2A NMDAR; assay: Whole-cell automated patch-clamp (QPatch) in 1 mM Mg2+; assay type: cell-based; set-up: host or cells: CHO (CHO-hNR1-h2A), tetracycline-induced expression; conditions: 1 mM Mg2+
# Description: (§1) Data were obtained in automated patch-clamp platform. […] Statistical results of one-way analysis of variance (ANOVA) followed by Tukey’s multiple comparisons test also reported p < 0.05 (*), p < 0.01 (**), p < 0.001 (***), and p < 0.0001 (****). Glu is glutamate.
# (§2) For QPatch experiments, cells were grown in T-flasks first at 37 °C, 5% CO2 for 3 to 4 h, then at 30 °C, 5% CO2 for 18 to 24 h in DMEM/F12 medium with added 500 μM ketamine and 10 μg/mL tetracycline (except for NR1-2B-CHO cells) without additional antibiotics. Cells were manually detached from the culture dish and automatically dispensed in QPatch wells with extracellular solution in the presence of 1 mM Mg^2+ and 500 μM ketamine.
# (§3) Holding potential was −80 mV, and voltage protocol included a depolarizing 2-s step pulse to +60 mV to check the quality of the seal and cell NMDAR expression level, followed by a 2-s ramp-up to holding potential.
# NR1-2B NMDAR [5] = target: T1, NR1-2B NMDAR; assay: as above; assay type: cell-based; set-up: host or cells: CHO (CHO-hNR1-h2B), constitutive expression; conditions: 1 mM Mg2+
# Description: as §1, §2, §3
# NR1-2D NMDAR = NR1-2D NMDAR (Homo sapiens, UniProt O15399+Q05586); assay: as above; assay type: cell-based; set-up: host or cells: CHO (CHO-hN1-h2D), tetracycline-induced expression; conditions: 1 mM Mg2+, −30 mV to −80 mV
# Description: as §1, §2, §3
# NR1-2C NMDAR [6] = target: T3, NR1-2C NMDAR; assay: as above; assay type: cell-based; set-up: host or cells: CHO (CHO-hN1-h2C), tetracycline-induced expression; conditions: 1 mM Mg2+
# Description: as §1, §2, §3
# [7] = 10 μM REL-1017, 1 μM L-glutamate
# [8] = 10 μM REL-1017, 10 μM L-glutamate
# T1 sequence (Q13224 27-1484, other chains not shown): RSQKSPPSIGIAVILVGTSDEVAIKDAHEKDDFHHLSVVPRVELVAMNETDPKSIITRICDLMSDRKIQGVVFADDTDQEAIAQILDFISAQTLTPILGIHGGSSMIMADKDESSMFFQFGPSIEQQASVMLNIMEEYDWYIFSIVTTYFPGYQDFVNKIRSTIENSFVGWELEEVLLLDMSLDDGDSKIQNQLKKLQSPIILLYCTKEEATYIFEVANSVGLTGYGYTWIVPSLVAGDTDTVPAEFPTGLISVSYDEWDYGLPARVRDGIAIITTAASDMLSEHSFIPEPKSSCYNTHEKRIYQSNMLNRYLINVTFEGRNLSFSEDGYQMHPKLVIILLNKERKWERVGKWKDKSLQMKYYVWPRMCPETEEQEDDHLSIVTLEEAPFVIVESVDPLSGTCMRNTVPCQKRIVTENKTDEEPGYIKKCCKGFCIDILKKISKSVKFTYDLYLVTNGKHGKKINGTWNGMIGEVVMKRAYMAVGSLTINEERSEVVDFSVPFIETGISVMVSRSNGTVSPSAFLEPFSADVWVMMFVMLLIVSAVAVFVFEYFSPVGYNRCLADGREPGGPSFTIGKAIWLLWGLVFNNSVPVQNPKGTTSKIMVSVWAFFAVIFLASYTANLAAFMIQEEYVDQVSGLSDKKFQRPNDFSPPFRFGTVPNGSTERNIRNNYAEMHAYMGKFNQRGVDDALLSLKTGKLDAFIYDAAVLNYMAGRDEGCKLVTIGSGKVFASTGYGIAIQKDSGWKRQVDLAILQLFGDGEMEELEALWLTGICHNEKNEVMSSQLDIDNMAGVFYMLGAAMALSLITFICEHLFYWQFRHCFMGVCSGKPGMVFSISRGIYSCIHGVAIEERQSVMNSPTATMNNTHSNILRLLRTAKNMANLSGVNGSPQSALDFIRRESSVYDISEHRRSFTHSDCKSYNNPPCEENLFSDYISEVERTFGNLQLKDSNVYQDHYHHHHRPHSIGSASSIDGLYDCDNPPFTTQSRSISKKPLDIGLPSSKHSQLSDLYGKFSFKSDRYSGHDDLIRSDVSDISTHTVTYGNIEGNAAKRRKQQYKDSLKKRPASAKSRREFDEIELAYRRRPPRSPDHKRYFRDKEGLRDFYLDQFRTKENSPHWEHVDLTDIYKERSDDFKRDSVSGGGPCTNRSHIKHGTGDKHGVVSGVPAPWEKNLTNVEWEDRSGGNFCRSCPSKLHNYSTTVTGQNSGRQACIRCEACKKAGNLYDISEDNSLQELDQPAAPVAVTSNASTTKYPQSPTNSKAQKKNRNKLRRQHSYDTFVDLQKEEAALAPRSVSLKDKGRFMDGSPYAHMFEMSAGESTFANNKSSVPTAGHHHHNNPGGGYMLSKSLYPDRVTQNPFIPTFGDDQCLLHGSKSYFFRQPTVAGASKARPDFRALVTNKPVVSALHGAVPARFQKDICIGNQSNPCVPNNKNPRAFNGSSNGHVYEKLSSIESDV
smiles,measurement,setting,value
"CCC(=O)C(C[C@H](C)N(C)C)(c1ccccc1)c1ccccc1 [REL-1017, dextromethadone HCl]",Hill Slope,NR1-2B NMDAR [1],1.17
same,Hill Slope,NR1-2A NMDAR [2],1.06
same,"I1 (% Current) at end of test item addition, normalized to I0",NR1-2C NMDAR [3]; 30 s co-application,20.4%
same,"I2 (% Current) at end of test item removal, normalized to I0",NR1-2C NMDAR [3]; 50 s after removal,98.5%
same,BR (residual block),NR1-2C NMDAR [3]; after wash with glycine alone,71.8 ± 1.1
same,B (initial block),NR1-2C NMDAR [3],84 ± 1% and 83.8 ± 1.2 %
same,"BT (trapped block, BR/B × 100)",NR1-2C NMDAR [3],85.9 ± 1.9%
same,Tau off,NR1-2C NMDAR [3],17.7 ± 1.0 s
same,Tau on,NR1-2C NMDAR [3],4.7 ± 0.21 s
same,effect on L-glutamate-elicited current,NR1-2A NMDAR [4]; [7],inactive
same,effect on L-glutamate-elicited current,"NR1-2A NMDAR [4]; 10 μM REL-1017, 10 μM L-glutamate, −30 mV to −80 mV",significantly reduced
same,effect on L-glutamate-elicited current,NR1-2B NMDAR [5]; [7],inactive
same,effect on L-glutamate-elicited current,NR1-2B NMDAR [5]; [8],"significantly reduced the elicited current only at −30 mV, −40 mV, and −50 mV"
same,effect on L-glutamate-elicited current,NR1-2D NMDAR; [7],significantly reduced
same,effect on L-glutamate-elicited current,NR1-2D NMDAR; [8],significantly reduced
same,effect on L-glutamate-elicited current,NR1-2C NMDAR [6]; [7],inactive
same,effect on L-glutamate-elicited current,NR1-2C NMDAR [6]; [8],inactive
